Results published in publication PMC13087252, “A CXCR4 targeting peptide delivered by silica nanoparticles eliminates migrating cancer stem cells in pancreatic ductal adenocarcinoma” (Scientific Reports, 2026).

Experiments:
Panc354 = assay: Transwell migration assay towards CXCL12 (serum-free, B27); format: cell-based, human; conditions: 8 μm pore inserts, CXCL12 10 nM as chemoattractant, 30 min peptide pre-treatment, 24 h, B27 as serum substitute, dose-dependent, largest suppression, n = 3
Procedure: Migration assays were performed using inserts with 8μm pore size PET membranes (Corning, 353,097). Serum (10% FBS) or CXCl12 (10nM) was used in the companion plates as chemoattractant. After 24 h, invaded cells were fixed with 4% PFA and stained with DAPI (Merck, 10,236,276,001). Ten random 10 × fields were chosen and photographed (Keyence), and the pictures were quantified using ImageJ (RRID:SCR_003070).
The CXCL12 – CXCR4 axis regulates a bidirectional tumor-stromal signaling loop that ultimately promotes CSCs and miCSCs and their metastatic and chemoresistant phenotypes. Therefore, targeting CXCR4 may provide a significant improvement in the anticancer therapeutic efficacy. The Endogenous Peptide Inhibitor of CXCR4 (EPI-X4) is a natural antagonist of CXCR4, previously discovered in a human peptide library screen. […]
(§1) (A) Migration assays towards CXCL12 using Panc354 for EPI-X4 and its derivatives at depicted concentrations. […] (D) Quantifications of percent mesenchymal structures after 15 min and 6 h of CXCL12 treatment in MetPO1 cells. […] Intensity ratios (IR) calculated against control lane using ImageJ. […] Quantification of cell viability and representative pictures for clonogenic assays after treatment with JM#21 (10 μM), gemcitabine (Gem) for indicated concentrations as depicted in experimental design in MetPO1 cell line. […]

[1] = test system: CD133+ CSCs in Panc354 and MetPO1 cells; assay: Flow cytometry for CD133 after combination treatment; format: cell-based, human; conditions: flow cytometry after 12 days of treatment, fold change
Procedure: For surface protein staining, 1 × 10^6 cells were resuspended in 100µl ice-cold FACS buffer supplemented with 6 µl Gamunex for 15 min at 4 °C. Cells were then incubated with CD133 (PE, Miltenyi Biotec, #130-113-108, RRID: AB_2725937) and CXCR4 (APC, eBioscience, #17-9999-42, RRID: AB_1724113) antibodies or an appropriate isotype control for 30 min at 4 °C. After a PBS wash, cells were resuspended in 500µl of ice-cold FACS buffer with DAPI in FACS tubes for analysis.
as §1
We then evaluated the therapeutic potential of JM#21. […] Since we have previously shown the role of CSCs in chemoresistance and the benefit of combination therapy for PDAC in vitro and in vivo[6],[38]–[40], we proceeded to evaluate the role of CSCs in the above-mentioned combination treatment and used flow cytometry to quantify CD133 + CSCs after 12 days of treatment (Fig. 5J, Supp. Figure 3I). […]

Compound | suppression of CXCL12-induced migration (Panc354) | CD133+ population in relapsed cells [1]
EPI-X4: Endogenous Peptide Inhibitor of CXCR4, a natural antagonist of CXCR4 from a human peptide library screen (PQNLIKQNCELFEQLG; UniProt P02768 408-423, looked up, fragment) | approx. 50% | –
Nc1ccn([C@@H]2O[C@H](CO)[C@@H](O)C2(F)F)c(=O)n1 [gemcitabine] | – | significant increase
